Laboratory results from patent publication US9278936B2, “Crystalline forms of 1-(3-tert-butyl-1-p-tolyl-1H-pyrazol-5-yl)-3-(5-fluoro-2-(1-(2-hydroxyethyl)-1H-indazol-5-yloxy)benzyl)urea hydrochloride” (Array BioPharma Inc., priority 2012, dated 2016).

Tests used:
[1] = Aqueous solubility / BCS class; type: physicochemical
[2] = Pharmacokinetics, relative bioavailability and food effect in healthy subjects following single oral doses; type: in vivo, human; settings: by 48 hours after dosing
Description: Formulations 1 and 2 as well as the control are summarized below.
This study design encompassed 3 parallel treatment cohorts of unique subjects evaluating the two formulations (12 subjects per cohort) and the PIC control (6 subjects) in a fasted or fed state, as shown in Table 12. A crossover food-effect assessment for the two formulations occurred with Groups 1 and 2 within Periods 1 and 2.
For each period, subjects were divided into 2 groups of equal size to evaluate any potential period effects on the food-effect assessment. Subjects fasted for a minimum of 8 hours the night before and 4 hours following dosing for the fasted assessment. Subjects consumed a slightly modified standard high-fat meal 30 minutes before and fasted for 4 hours after dosing for the fed portion of the food-effect assessment. Following a 7-day washout after the initial dose, subjects being dosed with the novel formulations returned to the clinic for the Period 2 single dose in the fasted state or following the consumption of a high-fat meal, as appropriate. Within each cohort and period, all subjects were treated on the same day. The same subjects were utilized for Cohort 1—Periods 1 and 2, and likewise for Cohort 2—Periods 1 and 2.
Both days were considered single dose for analysis purposes. Pharmacokinetic parameters calculated included the following: […]

p38 MAPK = settings: cited from earlier work
Tie2 protein kinase = Tie2 protein kinase (Homo sapiens, UniProt Q02763); settings: cited from earlier work
Sequence of Tie2 protein kinase (Q02763 23-1124): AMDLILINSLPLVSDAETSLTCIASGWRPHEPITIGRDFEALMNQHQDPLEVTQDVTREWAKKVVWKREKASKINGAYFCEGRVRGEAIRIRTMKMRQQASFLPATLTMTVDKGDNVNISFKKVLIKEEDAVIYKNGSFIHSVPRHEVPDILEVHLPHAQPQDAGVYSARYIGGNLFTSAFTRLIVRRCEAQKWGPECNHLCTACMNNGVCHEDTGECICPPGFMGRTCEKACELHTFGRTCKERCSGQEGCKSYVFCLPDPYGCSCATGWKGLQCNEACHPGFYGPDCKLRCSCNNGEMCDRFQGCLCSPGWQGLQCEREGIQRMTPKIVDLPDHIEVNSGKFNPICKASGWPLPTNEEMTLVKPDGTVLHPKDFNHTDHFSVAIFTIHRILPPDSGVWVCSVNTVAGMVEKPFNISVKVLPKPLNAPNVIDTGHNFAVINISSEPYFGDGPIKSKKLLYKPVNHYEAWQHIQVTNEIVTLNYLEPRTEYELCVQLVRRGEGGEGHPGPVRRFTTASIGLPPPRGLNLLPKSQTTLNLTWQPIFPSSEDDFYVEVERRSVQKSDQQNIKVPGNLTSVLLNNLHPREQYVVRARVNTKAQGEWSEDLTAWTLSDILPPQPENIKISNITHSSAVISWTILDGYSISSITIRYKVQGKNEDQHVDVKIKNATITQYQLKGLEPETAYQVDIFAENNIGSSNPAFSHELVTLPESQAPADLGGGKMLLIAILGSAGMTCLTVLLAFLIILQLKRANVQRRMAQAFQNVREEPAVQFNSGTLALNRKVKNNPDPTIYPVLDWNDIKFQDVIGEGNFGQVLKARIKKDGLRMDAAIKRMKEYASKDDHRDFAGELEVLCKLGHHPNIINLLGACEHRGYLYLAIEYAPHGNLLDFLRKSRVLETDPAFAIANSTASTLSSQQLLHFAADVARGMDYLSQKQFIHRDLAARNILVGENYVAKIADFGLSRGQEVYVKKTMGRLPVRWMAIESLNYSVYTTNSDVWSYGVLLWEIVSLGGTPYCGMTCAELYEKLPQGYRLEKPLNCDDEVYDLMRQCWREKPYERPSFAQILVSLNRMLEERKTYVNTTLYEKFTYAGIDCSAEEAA

Cc1ccc(-n2nc(C(C)(C)C)cc2NC(=O)NCc2cc(F)ccc2Oc2ccc3c(cnn3CCO)c2)cc1 [ARRY-614, 1-(3-Tert-butyl-1-p-tolyl-1H-pyrazol-5-yl)-3-(5-fluoro-2-(1-(2-hydroxyethyl)-1H-indazol-5-yloxy)benzyl)urea]
BCS class [1]: Class II
solubility ([1]; aqueous media, aqueous buffer, across the typical physiological pH range of 2-8): < 10 µg/mL
mean plasma concentrations relative to the mean peak plasma concentrations [2]: less than 10%
inhibitory activity against p38 MAPK (p38 MAPK): potent inhibitory activity
inhibitory activity against Tie2 protein kinase (Tie2 protein kinase): potent inhibitory activity
